Test results reported in US12077503B2, “Substituted cyclic amides and their use as herbicides” (FMC CORPORATION, priority 2015, dated 2024).

Columns and labels:
Assay type in all cases: in vivo
[1] = system: velvetleaf (Abutilon theophrasti); assay: Test G Post-Emergence Protocol; conditions: Abutilon theophrasti, post-emergence, 312 h; for pest or weed control at 15.625 g/ha: 15.625 g ai/ha, evaluated after 13 days (100=total damage to plant; 0=no damage to plant), read-out: Velvetleaf damage rating; for pest or weed control at 62.5 g/ha: 62.5 g ai/ha, read-out: Velvetleaf damage rating (100=total damage to plant; 0=no damage to plant); for pest or weed control at 62.5 g/ha / pest or weed control at 250 g/ha: evaluated after 13 days; for pest or weed control at 250 g/ha: 250 g ai/ha, read-out: damage to plant, Velvetleaf (100=total damage to plant; 0=no damage to plant)
Method in brief: (§1)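 A glasshouse post-emergence test: 8-day-old plants sprayed at 15.625, 62.5 or 250 g/ha, then grown at 24/16 °C day/night with 14 h light and 65% humidity. Damage rated 13 days later, 0–100.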

[2] = system: redroot pigweed (Amaranthus retroflexus); assay: Test G Post-Emergence Protocol; conditions: Amaranthus retroflexus, post-emergence, 312 h; for pest or weed control at 15.625 g/ha: 15.625 g ai/ha, evaluated after 13 days (100=total damage to plant; 0=no damage to plant), read-out: Pigweed, Redroot damage rating; for pest or weed control at 62.5 g/ha: 62.5 g ai/ha, read-out: Pigweed, Redroot damage rating (100=total damage to plant; 0=no damage to plant); for pest or weed control at 62.5 g/ha / pest or weed control at 250 g/ha: evaluated after 13 days; for pest or weed control at 250 g/ha: 250 g ai/ha, read-out: damage to plant, Pigweed, Redroot (100=total damage to plant; 0=no damage to plant)
Method in brief: as §1

corn (Zea mays) [3] = assay: Test G Post-Emergence Protocol; conditions: Zea mays, post-emergence, 312 h; for plant injury at 15.625 g/ha: 15.625 g ai/ha, evaluated after 13 days (100=total damage to plant; 0=no damage to plant), read-out: Corn damage rating; for plant injury at 62.5 g/ha: 62.5 g ai/ha, read-out: Corn damage rating (100=total damage to plant; 0=no damage to plant); for plant injury at 62.5 g/ha / plant injury at 250 g/ha: evaluated after 13 days; for plant injury at 250 g/ha: 250 g ai/ha, read-out: damage to plant, Corn (100=total damage to plant; 0=no damage to plant)
Method in brief: as §1

[4] = system: barnyardgrass (Echinochloa crus-galli); assay: Test G Post-Emergence Protocol; conditions: Echinochloa crus-galli, post-emergence, 312 h; for pest or weed control at 15.625 g/ha: 15.625 g ai/ha, evaluated after 13 days (100=total damage to plant; 0=no damage to plant), read-out: Barnyardgrass damage rating; for pest or weed control at 62.5 g/ha: 62.5 g ai/ha, read-out: Barnyardgrass damage rating (100=total damage to plant; 0=no damage to plant); for pest or weed control at 62.5 g/ha / pest or weed control at 250 g/ha: evaluated after 13 days; for pest or weed control at 250 g/ha: 250 g ai/ha, read-out: damage to plant, Barnyardgrass (100=total damage to plant; 0=no damage to plant)
Method in brief: as §1

[5] = system: ivy-leaved morning glory (Ipomoea hederacea); assay: Test G Post-Emergence Protocol; conditions: Ipomoea, post-emergence, 312 h; for pest or weed control at 15.625 g/ha: 15.625 g ai/ha, evaluated after 13 days (100=total damage to plant; 0=no damage to plant), read-out: Morningglory, Ivy-leaved damage rating; for pest or weed control at 62.5 g/ha: 62.5 g ai/ha, read-out: Morningglory, Ivy-leaved damage rating (100=total damage to plant; 0=no damage to plant); for pest or weed control at 62.5 g/ha / pest or weed control at 250 g/ha: evaluated after 13 days; for pest or weed control at 250 g/ha: 250 g ai/ha, read-out: damage to plant, Morningglory, Ivy-leaved (100=total damage to plant; 0=no damage to plant)
Method in brief: as §1

[6] = system: giant foxtail (Setaria faberi); assay: Test G Post-Emergence Protocol; conditions: Setaria faberi, post-emergence, 312 h; for pest or weed control at 15.625 g/ha: 15.625 g ai/ha, evaluated after 13 days (100=total damage to plant; 0=no damage to plant), read-out: Foxtail, Giant damage rating; for pest or weed control at 62.5 g/ha: 62.5 g ai/ha, read-out: Foxtail, Giant damage rating (100=total damage to plant; 0=no damage to plant); for pest or weed control at 62.5 g/ha / pest or weed control at 250 g/ha: evaluated after 13 days; for pest or weed control at 250 g/ha: 250 g ai/ha, read-out: damage to plant, Foxtail, Giant (100=total damage to plant; 0=no damage to plant)
Method in brief: as §1

[7] = system: velvetleaf (Abutilon theophrasti); assay: Test G Pre-Emergence Protocol; conditions: Abutilon theophrasti, pre-emergence, 312 h, evaluated after 13 days; for pest or weed control at 15.625 g/ha: 15.625 g ai/ha; for pest or weed control at 15.625 g/ha / pest or weed control at 250 g/ha: read-out: Velvetleaf damage rating (100=total damage to plant; 0=no damage to plant); for pest or weed control at 62.5 g/ha: 62.5 g ai/ha, 100=total damage to plant, 0=no damage to plant, read-out: plant damage rating, Velvetleaf; for pest or weed control at 250 g/ha: 250 g ai/ha
Method in brief: (§2)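 Under a 24/16° C day/night regime with 14 h light and 65% humidity, sown pots were sprayed after one day with compound (15.625, 62.5 or 250 g/ha; 50:50 acetone/water, 0.5% Tween 20). Damage was assessed visually 13 days later, 0 to 100.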

[8] = system: redroot pigweed (Amaranthus retroflexus); assay: Test G Pre-Emergence Protocol; conditions: Amaranthus retroflexus, pre-emergence, 312 h, evaluated after 13 days; for pest or weed control at 15.625 g/ha: 15.625 g ai/ha; for pest or weed control at 15.625 g/ha / pest or weed control at 250 g/ha: read-out: Pigweed, Redroot damage rating (100=total damage to plant; 0=no damage to plant); for pest or weed control at 62.5 g/ha: 62.5 g ai/ha, 100=total damage to plant, 0=no damage to plant, read-out: plant damage rating, Pigweed, Redroot; for pest or weed control at 250 g/ha: 250 g ai/ha
Method in brief: as §2

corn (Zea mays) [9] = assay: Test G Pre-Emergence Protocol; conditions: Zea mays, pre-emergence, 312 h, evaluated after 13 days; for plant injury at 15.625 g/ha: 15.625 g ai/ha; for plant injury at 15.625 g/ha / plant injury at 250 g/ha: read-out: Corn damage rating (100=total damage to plant; 0=no damage to plant); for plant injury at 62.5 g/ha: 62.5 g ai/ha, 100=total damage to plant, 0=no damage to plant, read-out: plant damage rating, Corn; for plant injury at 250 g/ha: 250 g ai/ha
Method in brief: as §2

[10] = system: barnyardgrass (Echinochloa crus-galli); assay: Test G Pre-Emergence Protocol; conditions: Echinochloa crus-galli, pre-emergence, 312 h, evaluated after 13 days; for pest or weed control at 15.625 g/ha: 15.625 g ai/ha, read-out: Barnyard grass damage rating (100=total damage to plant; 0=no damage to plant); for pest or weed control at 62.5 g/ha: 62.5 g ai/ha, 100=total damage to plant, 0=no damage to plant, read-out: plant damage rating, Barnyardgrass; for pest or weed control at 250 g/ha: 250 g ai/ha, read-out: Barnyardgrass damage rating (100=total damage to plant; 0=no damage to plant)
Method in brief: as §2

[11] = system: ivy-leaved morning glory (Ipomoea hederacea); assay: Test G Pre-Emergence Protocol; conditions: Ipomoea, pre-emergence, 312 h, evaluated after 13 days; for pest or weed control at 15.625 g/ha: 15.625 g ai/ha, read-out: Morning-glory, Ivy-leaved damage rating (100=total damage to plant; 0=no damage to plant); for pest or weed control at 62.5 g/ha: 62.5 g ai/ha, 100=total damage to plant, 0=no damage to plant, read-out: plant damage rating, Morningglory, Ivy-leaved; for pest or weed control at 250 g/ha: 250 g ai/ha, read-out: Morningglory, Ivy-leaved damage rating (100=total damage to plant; 0=no damage to plant)
Method in brief: as §2

[12] = system: giant foxtail (Setaria faberi); assay: Test G Pre-Emergence Protocol; conditions: Setaria faberi, pre-emergence, 312 h, evaluated after 13 days; for pest or weed control at 15.625 g/ha: 15.625 g ai/ha; for pest or weed control at 15.625 g/ha / pest or weed control at 250 g/ha: read-out: Foxtail, Giant damage rating (100=total damage to plant; 0=no damage to plant); for pest or weed control at 62.5 g/ha: 62.5 g ai/ha, 100=total damage to plant, 0=no damage to plant, read-out: plant damage rating, Foxtail, Giant; for pest or weed control at 250 g/ha: 250 g ai/ha
Method in brief: as §2

Compound: COc1cncc(NC(=O)[C@@H]2C(=O)N(C)C[C@H]2c2ccc(C(F)(F)F)cc2)n1 (racemic) [Compound 1565]
- pest or weed control at 15.625 g/ha [1]: 0%
- pest or weed control at 62.5 g/ha [1]: 0%
- pest or weed control at 250 g/ha [1]: 30%
- pest or weed control at 15.625 g/ha [2]: 0%
- pest or weed control at 62.5 g/ha [2]: 0%
- pest or weed control at 250 g/ha [2]: 0%
- plant injury at 15.625 g/ha (corn (Zea mays) [3]): 0%
- plant injury at 62.5 g/ha (corn (Zea mays) [3]): 0%
- plant injury at 250 g/ha (corn (Zea mays) [3]): 10%
- pest or weed control at 15.625 g/ha [4]: 0%
- pest or weed control at 62.5 g/ha [4]: 0%
- pest or weed control at 250 g/ha [4]: 10%
- pest or weed control at 15.625 g/ha [5]: 0%
- pest or weed control at 62.5 g/ha [5]: 0%
- pest or weed control at 250 g/ha [5]: 0%
- pest or weed control at 15.625 g/ha [6]: 0%
- pest or weed control at 62.5 g/ha [6]: 0%
- pest or weed control at 250 g/ha [6]: 50%
- pest or weed control at 15.625 g/ha [7]: 0%
- pest or weed control at 62.5 g/ha [7]: 0%
- pest or weed control at 250 g/ha [7]: 0%
- pest or weed control at 15.625 g/ha [8]: 0%
- pest or weed control at 62.5 g/ha [8]: 0%
- pest or weed control at 250 g/ha [8]: 10%
- plant injury at 15.625 g/ha (corn (Zea mays) [9]): 0%
- plant injury at 62.5 g/ha (corn (Zea mays) [9]): 0%
- plant injury at 250 g/ha (corn (Zea mays) [9]): 0%
- pest or weed control at 15.625 g/ha [10]: 0%
- pest or weed control at 62.5 g/ha [10]: 0%
- pest or weed control at 250 g/ha [10]: 10%
- pest or weed control at 15.625 g/ha [11]: 0%
- pest or weed control at 62.5 g/ha [11]: 0%
- pest or weed control at 250 g/ha [11]: 0%
- pest or weed control at 15.625 g/ha [12]: 0%
- pest or weed control at 62.5 g/ha [12]: 0%
- pest or weed control at 250 g/ha [12]: 60%

Compound: CN1C[C@@H](c2ccc(C(F)(F)F)cc2)[C@H](C(=O)Nc2cnnc(Cl)c2Cl)C1=O (racemic) [Compound 1567]
- pest or weed control at 15.625 g/ha [1]: 0%
- pest or weed control at 62.5 g/ha [1]: 0%
- pest or weed control at 250 g/ha [1]: 0%
- pest or weed control at 15.625 g/ha [2]: 0%
- pest or weed control at 62.5 g/ha [2]: 0%
- pest or weed control at 250 g/ha [2]: 0%
- plant injury at 15.625 g/ha (corn (Zea mays) [3]): 0%
- plant injury at 62.5 g/ha (corn (Zea mays) [3]): 0%
- plant injury at 250 g/ha (corn (Zea mays) [3]): 0%
- pest or weed control at 15.625 g/ha [4]: 0%
- pest or weed control at 62.5 g/ha [4]: 0%
- pest or weed control at 250 g/ha [4]: 10%
- pest or weed control at 15.625 g/ha [5]: 0%
- pest or weed control at 62.5 g/ha [5]: 0%
- pest or weed control at 250 g/ha [5]: 0%
- pest or weed control at 15.625 g/ha [6]: 0%
- pest or weed control at 62.5 g/ha [6]: 0%
- pest or weed control at 250 g/ha [6]: 0%
- pest or weed control at 15.625 g/ha [7]: 0%
- pest or weed control at 62.5 g/ha [7]: 0%
- pest or weed control at 250 g/ha [7]: 0%
- pest or weed control at 15.625 g/ha [8]: 0%
- pest or weed control at 62.5 g/ha [8]: 0%
- pest or weed control at 250 g/ha [8]: 0%
- plant injury at 15.625 g/ha (corn (Zea mays) [9]): 0%
- plant injury at 62.5 g/ha (corn (Zea mays) [9]): 0%
- plant injury at 250 g/ha (corn (Zea mays) [9]): 0%
- pest or weed control at 15.625 g/ha [10]: 0%
- pest or weed control at 62.5 g/ha [10]: 0%
- pest or weed control at 250 g/ha [10]: 0%
- pest or weed control at 15.625 g/ha [11]: 0%
- pest or weed control at 62.5 g/ha [11]: 0%
- pest or weed control at 250 g/ha [11]: 0%
- pest or weed control at 15.625 g/ha [12]: 0%
- pest or weed control at 62.5 g/ha [12]: 0%
- pest or weed control at 250 g/ha [12]: 0%
